From patent US20250100993A1, “2-SUBSTITUTED THIAZOLE HSD17B13 INHIBITORS AND USES THEREOF” (Inipharm, Inc., priority 2022, published 2025)

What follows are compounds tested against HSD17B13 (Homo sapiens (Human), UniProt Q7Z5P4) (assay: LC/MS estrone detection assay for HSD17B13 activity (estradiol to estrone)). Settings: estradiol substrate, LC-MS/MS estrone detection.
Type: biochemical
Experimental: The liquid chromatography/mass spectrometry (LC/MS) estrone detection assay monitors the conversion of estradiol to estrone by HSD17B13. This assay was undertaken in a 96 wp format (Eppendorf deep well Plate 96/500) in an 80 μl reaction volume containing: 4 μM of Estradiol (E2; Cayman; Ser. No. 10/006,315), 6 mM NAD+(Sigma; #N0623) and 30 nM HSD17B13 enzyme (in-house; E. coli expressed His-tagged, purified, soluble protein) in a reaction containing 1M potassium phosphate buffer pH 7.4, with 0.5% vehicle (DMSO). Reactions were incubated for 2 hours at 26.5° C., and estradiol (E2) conversion to estrone (E1) was quantitated by LC-MS/MS based analyte detection for both E2 and E1 using LCMS grade reagents.
Reactions were terminated by the addition of two volumes of acetonitrile (MeCN; LCMS grade; CAS #75/05/8) containing deuterated (D4)-E1 used as internal standard (Clear Synth; #CS-T-54273; 500 ng/mL final concentration). Samples were applied to pre-prepared Bond Elut-C18 extraction cartridges (3 mL; Agilent; Ser. No. 12/102,028), washed and eluted in MeCN. Eluates were dried under nitrogen and re-suspended in 60% methanol (LCMS grade methanol; CAS #67/56/1) before submission for analysis. Aqueous linearity for E2 and E1 were included for quantification.
Analysis of samples was undertaken on a XBridge BEH C18 column (Waters; #186003033) using 0.1% Diethyl Amine in MeCN (mobile phase A; DEA CAS #109-89-7) and 0.1% Diethyl Amine in milli-Q water (mobile phase B) in a 3 min gradient allowing 25% B. Analytes were detected in negative mode using MRM analysis, with E2 having a RT of 1.85 min and E1 having a RT of 2 min. Activity of the enzyme, in the absence of NAD+, was used to evaluate specificity of conversion. Enzyme activity in the presence of test samples was expressed as a percentage of the uninhibited enzyme activity, and plotted versus inhibitor concentration. Non-linear regression was performed using a four-parameter logistic model and GraphPad Prism software (GraphPad Software, La Jolla, CA). All assessments were undertaken in duplicate evaluations and pooled during extraction process and subsequently injected as duplicates for LC-MS/MS analysis.

HSD17B13, sequence (Q7Z5P4 20-300): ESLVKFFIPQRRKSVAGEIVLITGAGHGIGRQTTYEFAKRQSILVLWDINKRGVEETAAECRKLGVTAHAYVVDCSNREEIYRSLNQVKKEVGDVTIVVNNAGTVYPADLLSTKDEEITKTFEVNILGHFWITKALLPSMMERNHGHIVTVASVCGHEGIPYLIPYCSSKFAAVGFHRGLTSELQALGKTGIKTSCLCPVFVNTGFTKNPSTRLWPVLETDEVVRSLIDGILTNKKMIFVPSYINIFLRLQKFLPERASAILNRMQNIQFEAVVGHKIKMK

| IC50 [µM] | SMILES |
| --- | --- |
| 0.1 to 0.5 | Cc1ccc(NC(=O)c2cc(Cl)c(O)c(Cl)n2)c2c(=O)n(Cc3ccccc3C(F)(F)F)nnc12 [Example 12, 4,6-dichloro-5-hydroxy-N-(8-methyl-4-oxo-3-(2-(trifluoromethyl)benzyl)-3,4-dihydrobenzo[d][1,2,3]triazin-5-yl)picolinamide] |
| 0.1 to 0.5 | Cc1nc2c(F)ccc(NC(=O)c3cc(Cl)c(O)c(Cl)n3)c2c(=O)n1[C@H]1CC[C@@H]1c1ccccc1 [Example 15, 4,6-dichloro-N-(8-fluoro-2-methyl-4-oxo-3-((1S,2R)-2-phenylcyclobutyl)-3,4-dihydroquinazolin-5-yl)-5-hydroxypicolinamide] |
| ≤ 0.1 | O=C(Nc1ccc(F)c2nnn(Cc3ccccc3C(F)(F)F)c(=O)c12)c1cc(Cl)c(O)c(Cl)c1 [Example 14, 3,5-dichloro-N-(8-fluoro-4-oxo-3-(2-(trifluoromethyl)benzyl)-3,4-dihydrobenzo[d][1,2,3]triazin-5-yl)-4-hydroxybenzamide] |
| 1 to 10 | Cn1ncc(C(=O)NCc2ccccc2C(F)(F)F)c1NC(=O)c1cc(Cl)c(O)c(Cl)n1 [Example 10, 4,6-dichloro-5-hydroxy-N-(1-methyl-4-((2-(trifluoromethyl)benzyl)carbamoyl)-1H-pyrazol-5-yl)picolinamide] |
| 1 to 10 | O=C(Nc1scnc1C(=O)NCC1(F)CC1)c1cc(Cl)c(O)c(Cl)n1 [Example 36, 5-(4,6-dichloro-5-hydroxypicolinamido)-N-((1-fluorocyclopropyl)methyl)thiazole-4-carboxamide] |
| 0.1 to 0.5 | O=C(Nc1nn(CC(F)(F)F)cc1C(=O)NCc1ccccc1C(F)(F)F)c1cc(Cl)c(O)c(Cl)c1 [Example 49, 3-(3,5-dichloro-4-hydroxybenzamido)-1-(2,2,2-trifluoroethyl)-N-(2-(trifluoromethyl)benzyl)-1H-pyrazole-4-carboxamide] |
| 0.1 to 0.5 | CC(C)n1cc(C(=O)NCc2ccccc2C(F)(F)F)c(NC(=O)c2cc(Cl)c(O)c(Cl)n2)n1 [Example 48, 4,6-dichloro-5-hydroxy-N-(1-isopropyl-4-((2-(trifluoromethyl)benzyl)carbamoyl)-1H-pyrazol-3-yl)picolinamide] |
| 0.1 to 0.5 | CC(C)(C)CCNC(=O)c1ncsc1NC(=O)c1cc(Cl)c(O)c(Cl)c1 [Example 46, 5-(3,5-dichloro-4-hydroxybenzamido)-N-(3,3-dimethylbutyl)thiazole-4-carboxamide] |
| 0.1 to 0.5 | O=C(Nc1scnc1C(=O)NCc1c(F)cccc1F)c1cc(Cl)c(O)c(Cl)n1 [Example 33, 5-(4,6-dichloro-5-hydroxypicolinamido)-N-(2,6-difluorobenzyl)thiazole-4-carboxamide] |
| ≤ 0.1 | O=C(Nc1sc(-c2ccccc2)nc1C(=O)NCc1ccccc1C(F)(F)F)c1cc(Cl)c(O)c(Cl)n1 [Example 23, 5-(4,6-dichloro-5-hydroxypicolinamido)-2-phenyl-N-(2 (trifluoromethyl)benzyl)thiazole-4-carboxamide] |
| ≤ 0.1 | O=C(Nc1ccc(-c2ccccc2)nc1C(=O)NCc1ccccc1OC(F)(F)F)c1cc(Cl)c(O)c(Cl)c1 [Example 57, 3-(3,5-dichloro-4-hydroxybenzamido)-6-phenyl-N-(2-(trifluoromethoxy)benzyl)picolin amide] |
| ≤ 0.1 | Cc1nsc(NC(=O)c2cc(Cl)c(O)c(Cl)n2)c1C(=O)NCc1ccccc1C(F)(F)F [Example 38, 5-(4,6-dichloro-5-hydroxypicolinamido)-3-methyl-N-(2-(trifluoromethyl)benzyl)isothiazole-4-carboxamide] |
| > 10 | O=C(Nc1scnc1C(=O)NC1CCC2(CC1)CNC2)c1cc(Cl)c(O)c(Cl)n1 [Example 37, 5-(4,6-dichloro-5-hydroxypicolinamido)-N-(2-azaspiro[3.5]nonan-7-yl)thiazole-4-carboxamide] |
| ≤ 0.1 | O=C(Nc1scnc1C(=O)NC12C[C@H]3C[C@@H](C1)C[C@@H](C2)C3)c1cc(Cl)c(O)c(Cl)n1 [Example 40, N-((3s,5s,7s)-adamantan-1-yl)-5-(4,6-dichloro-5-hydroxypicolinamido)thiazole-4-carboxamide] |
| ≤ 0.1 | O=C(Nc1n[nH]cc1C(=O)NCc1ccccc1C(F)(F)F)c1cc(Cl)c(O)c(Cl)c1 [Example 3, 3-(3,5-dichloro-4-hydroxybenzamido)-N-(2-(trifluoromethyl)benzyl)-1H-pyrazole-4-carboxamide] |
| ≤ 0.1 | O=C(Nc1n[nH]cc1C(=O)NCc1ccccc1C(F)(F)F)c1cc(Cl)c(O)c(Cl)n1 [Example 1, 4,6-dichloro-5-hydroxy-N-(4-((2-(trifluoromethyl)benzyl)carbamoyl)-1H-pyrazol-3-yl)picolinamide] |
| ≤ 0.1 | O=C(Nc1ccc(-c2ccccc2)nc1C(=O)NCc1ccccc1OC(F)(F)F)c1cc(Cl)c(O)c(Cl)n1 [Example 58, 4,6-dichloro-5-hydroxy-N-(6-phenyl-2-((2-(trifluoromethoxy)benzyl)carbamoyl)pyridin-3-yl)picolinamide] |
| 0.5 to 1 | O=C(Nc1cccc2c1c(=O)n(Cc1ccccc1C(F)(F)F)c(=O)n2C1CC1)c1cc(Cl)c(O)c(Cl)n1 [Example 56, 4,6-dichloro-N-(1-cyclopropyl-2,4-dioxo-3-(2-(trifluoromethyl)benzyl)-1,2,3,4-tetrahydroquinazolin-5-yl)-5-hydroxypicolinamide] |
| 0.1 to 0.5 | Cc1nc(C(=O)NCc2ccccc2OC(F)(F)F)c(NC(=O)c2cc(Cl)c(O)c(Cl)n2)s1 [Example 22, 5-(4,6-dichloro-5-hydroxypicolinamido)-2-methyl-N-(2-(trifluoromethoxy)benzyl)thiazole-4-carboxamide] |
| 0.1 to 0.5 | Cc1nc(C(=O)NCc2ccccc2C(F)(F)F)c(NC(=O)c2cc(Cl)c(O)c(Cl)c2)s1 [Example 27, 5-(3,5-dichloro-4-hydroxybenzamido)-2-methyl-N-(2-(trifluoromethyl)benzyl)thiazole-4-carboxamide] |
| 0.1 to 0.5 | O=C(Nc1scnc1C(=O)NCC12CC3CC(CC(C3)C1)C2)c1cc(Cl)c(O)c(Cl)n1 [Example 30, N-(adamantan-1-ylmethyl)-5-(4,6-dichloro-5-hydroxypicolinamido)thiazole-4-carboxamide] |
| 0.1 to 0.5 | Cn1cc(C(=O)NCc2ccccc2C(F)(F)F)c(NC(=O)c2cc(Cl)c(O)c(Cl)c2)n1 [Example 6, 3-(3,5-dichloro-4-hydroxybenzamido)-1-methyl-N-(2-(trifluoromethyl)benzyl)-1H-pyrazole-4-carboxamide] |
| 0.1 to 0.5 | O=C(Nc1ccc(F)c2nnn(Cc3ccccc3C(F)(F)F)c(=O)c12)c1cc(Cl)c(O)c(Cl)n1 [Example 13, 4,6-dichloro-N-(8-fluoro-4-oxo-3-(2-(trifluoromethyl)benzyl)-3,4-dihydrobenzo[d][1,2,3]triazin-5-yl)-5-hydroxypicolinamide] |

Same assay, conditions: estradiol substrate, LCMS; read-out: HSD17B13 Inhibition_Estradiol Substrate_LCMS: Ki

| Ki [µM] | SMILES |
| --- | --- |
| 0.1 to 0.5 | O=C(Nc1sc(C2CCOCC2)nc1C(=O)NCc1ccccc1C(F)(F)F)c1cc(Cl)c(O)c(Cl)c1 [Example 82, 5-(3,5-dichloro-4-hydroxybenzamido)-2-(tetrahydro-2H-pyran-4-yl)-N-(2-(trifluoromethyl)benzyl)thiazole-4-carboxamide] |
| ≤ 0.05 | O=C(Nc1sc(-c2cncc(F)c2)nc1C(=O)NCc1ccccc1C(F)(F)F)c1cc(Cl)c(O)c(Cl)n1 [Example 76] |
| 0.1 to 0.5 | CN1CCC(c2nc(C(=O)NCc3ccccc3C(F)(F)F)c(NC(=O)c3cc(Cl)c(O)c(Cl)c3)s2)CC1 [Example 87] |
| ≤ 0.05 | O=C(Nc1sc(C2CCCCC2)nc1C(=O)NCc1ccccc1C(F)(F)F)c1cc(Cl)c(O)c(Cl)n1 [Example 84] |
| 0.1 to 0.5 | CN1CCC(c2nc(C(=O)NCc3ccccc3C(F)(F)F)c(NC(=O)c3cc(Cl)c(O)c(Cl)n3)s2)CC1 [Example 86, 5-(4,6-dichloro-5-hydroxypicolinamido)-2-(1-methylpiperidin-4-yl)-N-(2-(trifluoromethyl)benzyl)thiazole-4-carboxamide] |
| ≤ 0.05 | O=C(Nc1sc(-c2cc[nH]n2)nc1C(=O)NCc1ccccc1C(F)(F)F)c1cc(Cl)c(O)c(Cl)n1 [Example 71] |
| ≤ 0.05 | O=C(Nc1sc(-c2cncc(F)c2)nc1C(=O)NCc1ccccc1C(F)(F)F)c1cc(Cl)c(O)c(Cl)c1 [Example 75] |
| 0.05 to 0.1 | O=C(Nc1sc(-c2cc(CN3CCCC3)ccc2F)nc1C(=O)NCc1ccccc1C(F)(F)F)c1cc(F)c(O)c(Cl)c1 [Example 105, 5-(3-chloro-5-fluoro-4-hydroxybenzamido)-2-(2-fluoro-5-(pyrrolidin-1-ylmethyl)phenyl)-N-(2-(trifluoromethyl)benzyl)thiazole-4-carboxamide] |
